Test results reported in article PMC8836147, “Design, Synthesis and Antifungal/Nematicidal Activity of Novel 1,2,4-Oxadiazole Derivatives Containing Amide Fragments” (International Journal of Molecular Sciences, 2022).
Values after ≈ are worked out from the molar mass of the structure shown.

What was measured:
[1] = test system: C. elegans; test: microbe, parasite or virus in culture; conditions: 48 h; for mortality at 50 µg/mL / mortality at 200 µg/mL: Caenorhabditis elegans, read-out: Corrected Mortality Rate ± SD (%) C. elegans
Text: (§1) M. incognita (parasitic on tomato plants), A. besseyi (potato dextrose agar–Botrytis cinerea breeding), B. xylophilus (potato dextrose agar–Botrytis cinerea breeding), and C. elegans (nematode growth medium–inactivated Escherichia coli OP50 cultivation) were provided by the Fine Chemical Research and Development Center of Guizhou University (Guizhou, China). The methodology used for the nematocidal bioassays of these target compounds was modified in the light of the conventional methods reported in the previously published literature. The nematicidal activity of the target compounds against four nematodes was determined using 48-well biochemical culture dishes. All of the compounds were dissolved with 100 μL DMF and were diluted with 1% Tween-80 to obtain 200 and 50 μg/mL concentrations for the bioassays. Fosthiazate and tioxazafen were used as positive controls at the same concentrations, and a negative control group was prepared without compounds using the same methodology. An amount of 10 µL of nematode suspension (about 50 nematodes) and 300 µL of the trial solution were added to corresponding hole, and each treatment was set to three repetitions. All of the 48-well plates were placed in a biochemical incubator at 27 °C for dark light culture. […] Corrected mortality (%) = [(mortality of treatment % − mortality of negative control %)/(1 − mortality of negative control %)] × 100%(3)

[2] = test system: M. incognita; test: microbe, parasite or virus in culture; conditions: Meloidogyne incognita, 48 h, read-out: Corrected Mortality Rate ± SD (%) M. incognita
Text: as §1

[3] = test system: B. xylophilus; test: microbe, parasite or virus in culture; conditions: Bursaphelenchus xylophilus, 48 h, read-out: Corrected Mortality Rate ± SD (%) B. xylophilus
Text: as §1

[4] = test system: A. besseyi; test: microbe, parasite or virus in culture; conditions: Aphelenchoides besseyi, 48 h, read-out: Corrected Mortality Rate ± SD (%) A. besseyi
Text: as §1

[5] = test system: B. cinerea; test: In vitro mycelium growth inhibition test; format: cell-based; conditions: Botrytis cinerea; 50 μg/mL; mycelial growth; mean ± SD of three replicates; read-out: Inhibition Rate (%) B. cinerea
Experimental: (§2) B. cinerea and S. scleotiorum were kindly provided by the Department of Pesticides, College of Plant Protection, Nanjing Agricultural University (Nanjing, China). All compounds were evaluated for mycelium growth inhibition tests against the two plant pathogenic fungi mentioned in previous reports. These two fungi were inoculated on potato dextrose agar (PDA) plates and were grown in biochemical incubators at 25 ± 1 °C for 2–4 days. The new mycelium was used to determine the antifungal activity. The target compounds were dissolved in 100 µL DMF, and they were then added into the PDA media to make the concentration 50 µg/mL. Mycelia dishes of about 5 mm in diameter were cut from the culture medium. Mycelium were picked up with a sterile inoculation needle, and the sample was inoculated in the middle of a PDA plate in a sterile environment. Afterwards, a preliminary screening of fungal activity was performed. […] Each test was carried out three times. The radial growth of the fungal colonies was gauged and recorded when the diameters of the blank control mycelia reached 5.0–5.5 cm. […] The final data were analyzed using SPSS v.25.0 (IBM, New York, NY, USA). The following formula was used to calculate the fungi inhibition rate. Inhibition rate (%) = [(Mycelium diameter of negative control − Mycelium diameter of treatment)/(Mycelium diameter of negative control − 0.5)] × 100%(1)

[6] = test system: S. sclerotiorum; test: In vitro mycelium growth inhibition test; format: cell-based; conditions: Sclerotinia sclerotiorum, mycelial growth, mean ± SD of three replicates; for inhibition at 50 µg/mL: 50 μg/mL, read-out: Inhibition Rate (%) S. sclerotiorum; for EC50: read-out: EC50 against S. sclerotiorum
Experimental: as §2

[7] = MTT cytotoxicity assay; format: cell-based; conditions: human, L-02 normal liver cells, L-02 cells
Experimental: The human liver L-02 cells were obtained from the biology laboratory in Key Laboratory of Chemistry for Natural Products of Guizhou Province and Chinese Academy of Sciences (Guiyang, China). The cells were grown in Dulbecco’s Modified Eagle’s Medium (supplemented with 10% (v/v) FBS, 100 U/mL penicillin, and 100 μg/mL streptomycin) at 37 °C in a CO2 incubator (5% CO2 and 95% air, 95% humidity). The effect of some compounds on cell viability was determined with the MTT assay according to the previously published literature. A total of 5000 cells were inoculated in a 96-well plate and three wells of each concentration of test compound were used. A total of 24 h after inoculation, the cells had grown to ~60% confluency, and different concentrations of compounds were added, and then the cells were cultured for 48 h. DMSO was used as the control. A total of 20 μL of MTT solution was added to each well and incubated at 37 °C for 4 h. Formazan crystals were dissolved in 150 μL of DMSO and quantified using a microplate reader (Thermo Scientific, Vario Skan Flash, Shanghai Bio-Gene Technology Co., LTD, Shanghai, China) at 490 nm. The cytotoxicity was calculated according to following formula:Cytotoxicity (%) = [(OCK − OT)/OCK] × 100%(2) where OCK represents the optical density (OD) value of the blank control group, and OT represents the OD value of experimental group.

| SMILES | mortality at 50 µg/mL [1] | mortality at 200 µg/mL [1] | mortality at 50 µg/mL [2] | mortality at 200 µg/mL [2] | mortality at 50 µg/mL [3] | mortality at 200 µg/mL [3] | mortality at 50 µg/mL [4] | mortality at 200 µg/mL [4] | inhibition at 50 µg/mL [5] | inhibition at 50 µg/mL [6] | EC50 [6] | cytotoxicity at 48 h, 50 μg/mL [7] | cytotoxicity at 48 h, 100 μg/mL [7] | cytotoxicity at 48 h, 200 μg/mL [7] | Corrected Mortality Rate ± SD (%) C. elegans ([1]; 50 µg/mL) | Corrected Mortality Rate ± SD (%) C. elegans ([1]; 200 µg/mL) |
| --- | --- | --- | --- | --- | --- | --- | --- | --- | --- | --- | --- | --- | --- | --- | --- | --- |
| O=C(NCCc1ccccn1)c1nc(-c2ccccc2)no1 [Compound F1, 3-Phenyl-N-(2-(pyridin-2-yl)ethyl)-1,2,4-oxadiazole-5-carboxamide] | 51.3 ± 2.2% | 88.7 ± 1.3% | 6.9 ± 2.1% | 43.5 ± 2.3% | 0% | 6.1 ± 1.1% | 0% | 6.9 ± 1.2% | 24.2 ± 0.2% | 73.2 ± 0.1% | 20.8 ± 0.8 µg/mL (≈ 70.7 µM) | 4.7 ± 4.9% | 10.9 ± 5.9% | 15.4 ± 4.4% |  |  |
| O=C(NCc1ccc(F)cc1F)c1nc(-c2ccccc2)no1 [Compound F3, N -(2,4-difluorobenzyl)-3-phenyl-1,2,4-oxadiazole-5-carboxamide] | 100% | 100% | 13.9 ± 2.1% | 54.9 ± 3.3% | 0% | 26.1 ± 1.2% | 0% | 20.1 ± 1.3% | 56.8 ± 0.1% | 84.8 ± 0.6% | 5.4 ± 0.3 µg/mL (≈ 17.1 µM) | 7.5 ± 3.8% | 17 ± 1.4% | 50.8 ± 3.9% | 100.0% | 100.0% |
| Cc1nc(C(F)(F)F)c(C(=O)Nc2c(Br)cc(OC(F)(F)F)cc2Br)s1 [Thifluzamide, thifluzamide, reference compound] |  |  |  |  |  |  |  |  | 80.3 ± 0.2% | 86.7 ± 0.3% | 4.3 ± 1.7 µg/mL (≈ 8.14 µM) | 33.3 ± 1.8% | 33.7 ± 0.4% | 33.9 ± 1.5% |  |  |
| O=C(NCCc1ccccn1)c1nc(-c2ccc(Cl)cc2)no1 [Compound F9, 3-(4-chlorophenyl)-N-(2-(pyridin-2-yl)ethyl)-1,2,4-oxadiazole-5-carboxamide] | 62.1 ± 2.2% | 87.6 ± 1.1% | 9.8 ± 2.5% | 56.3 ± 2.4% | 0% | 14.5 ± 2.5% | 0% | 12.8 ± 2.3% | 26.7 ± 0.5% | 61.1 ± 0.7% | 18.7 ± 0.4 µg/mL (≈ 56.9 µM) | -2.5 ± 0.2% | 7.1 ± 6.5% | 31.5 ± 8.7% |  |  |
| O=C(NCCc1ccccn1)c1nc(-c2cccs2)no1 [Compound F13, N -(2-(pyridin-2-yl)ethyl)-3-(thiophen-2-yl)-1,2,4-oxadiazole-5-carboxamide] | 70.4 ± 2.6% | 100% | 0% | 11.6 ± 1.1% | 0% | 9.1 ± 1.5% | 0% | 21.7 ± 2.4% | 27.3 ± 0.4% | 41.1 ± 0.1% |  |  |  |  |  |  |
| O=C(Nc1ccc(Cl)cc1Cl)c1nc(-c2ccc(Br)nc2)no1 [Compound F20] | 81.4 ± 1.5% | 100% | 8.6 ± 2.2% | 41.2 ± 1.3% | 0% | 41.2 ± 1.3% | 0% | 26.4 ± 2.5% | 55.8 ± 0.1% | 13.8 ± 0.5% |  |  |  |  |  |  |
| O=C(NCc1ccc(F)cc1F)c1nc(-c2ccc(Cl)cc2)no1 [Compound F11, 3-(4-chlorophenyl)-N-(2,4-difluorobenzyl)-1,2,4-oxadiazole-5-carboxamide] | 10.6 ± 1.3% | 73.6 ± 1.7% | 24.8 ± 2.2% | 93.2 ± 2.1% | 0% | 23.2 ± 2.1% | 0% | 19.8 ± 2.1% | 44.2 ± 1.2% | 44.9 ± 0.9% |  |  |  |  |  |  |
